Experimental data as given in ChEMBL document CHEMBL1124314, “Development of phosphonate derivatives of gadolinium chelates for NMR imaging of calcified soft tissues” (J Med Chem, 1989).
Blank lines part the entries; values can stand above or below the molecule they belong to.

Key:
[1] = Ratio of uptake of [GD] in bone 1 hr post injection with 0.002 to that of blood; type: functional
[2] = Ratio of uptake of [GD] in bone 1 hr post injection with 0.002 to that of muscle; type: functional
[3] = organism: Rattus norvegicus; experiment: Biodistribution in normal rat blood in the presence of NAC Gd 0.01 M lig at 2 hr; type: ADME, organism-based; details: in vivo
[4] = organism: Rattus norvegicus; experiment: Uptake of [GD] in bone 1 hr post injection with 0.002 of the compound; type: functional, Bone element
[5] = organism: Rattus norvegicus; experiment: Uptake of [GD] in bone 1 h post injection with 0.01 of the compound; type: functional, Bone element
[6] = organism: Rattus norvegicus; experiment: Biodistribution in normal rat muscle in the presence of NAC Gd 0.01 M lig at 2 hr; type: ADME, organism-based, Muscle tissue; details: in vivo
[7] = organism: Rattus norvegicus; experiment: Biodistribution in normal rat lung in the presence of NAC Gd 0.01 M lig at 2 hr; type: ADME, organism-based; details: in vivo
[8] = organism: Rattus norvegicus; experiment: Biodistribution in normal rat heart in the presence of 0.005 M Gd/0.01 M lig at 2 hr; type: ADME, organism-based; details: in vivo
[9] = organism: Rattus norvegicus; experiment: Uptake of [GD] in bone 1 hr post injection with 0.025 of the compound; type: functional, Bone element
[10] = organism: Rattus norvegicus; experiment: Biodistribution in normal rat kidney in the presence of NAC Gd 0.01 M lig at 2 hr; type: ADME, organism-based; details: in vivo
[11] = organism: Rattus norvegicus; experiment: Biodistribution in normal rat liver in the presence of 0.01 M Gd/0.05 M lig; type: ADME, organism-based; details: in vivo
[12] = Ratio of uptake of [GD] in bone 1 hr post injection with 0.01 to that of blood; type: functional
[13] = organism: Rattus norvegicus; experiment: Biodistribution in normal rat muscle in the presence of 0.005 M Gd/0.01 M lig at 2 hr; type: ADME, organism-based, Muscle tissue; details: in vivo
[14] = organism: Rattus norvegicus; experiment: Biodistribution in normal rat heart in the presence of NAC Gd 0.01 M lig at 2 hr; type: ADME, organism-based; details: in vivo
[15] = Uptake of [GD] in bone 1 hr post injection with NCA GD dose to that of muscle; type: functional, Muscle tissue
[16] = organism: Rattus norvegicus; experiment: Biodistribution in normal rat kidney in the presence of 0.005 M Gd/0.01 M lig at 2 hr; type: ADME, organism-based; details: in vivo
[17] = organism: Rattus norvegicus; experiment: Biodistribution in normal rat lung in the presence of 0.01 M Gd/0.05 M lig; type: ADME, organism-based; details: in vivo
[18] = Ratio of uptake of [GD] in bone 1 hr post injection with 0.025 to that of blood; type: functional
[19] = organism: Rattus norvegicus; experiment: Biodistribution in normal rat heart in the presence of 0.01 M Gd/0.05 M lig; type: ADME, organism-based; details: in vivo
[20] = organism: Rattus norvegicus; experiment: Biodistribution in normal rat muscle in the presence of 0.01 M Gd/0.05 M lig; type: ADME, organism-based, Muscle tissue; details: in vivo
[21] = organism: Rattus norvegicus; experiment: Biodistribution in normal rat spleen in the presence of 0.005 M Gd/0.01 M lig at 2 hr; type: ADME, organism-based; details: in vivo
[22] = organism: Rattus norvegicus; experiment: Biodistribution in normal rat bone in the presence of NAC Gd 0.01 M lig at 2 hr; type: ADME, organism-based, Bone element; details: in vivo
[23] = Ratio of uptake of [GD] in bone 1 hr post injection with 0.01 to that of muscle; type: functional
[24] = organism: Rattus norvegicus; experiment: Biodistribution in normal rat spleen in the presence of 0.01 M Gd/0.05 M lig; type: ADME, organism-based; details: in vivo
[25] = Ratio of uptake of [GD] in bone 1 hr post injection with 0.025 to that of muscle; type: functional
[26] = organism: Rattus norvegicus; experiment: Biodistribution in normal rat blood in the presence of 0.005 M Gd/0.01 M lig at 2 hr; type: ADME, organism-based; details: in vivo
[27] = organism: Rattus norvegicus; experiment: Biodistribution in normal rat lung in the presence of 0.005 M Gd/0.01 M lig at 2 hr; type: ADME, organism-based; details: in vivo
[28] = organism: Rattus norvegicus; experiment: Biodistribution in normal rat kidney in the presence of 0.01 M Gd/0.05 M lig; type: ADME, organism-based; details: in vivo
[29] = organism: Rattus norvegicus; experiment: Biodistribution in normal rat bone in the presence of 0.01 M Gd/0.05 M lig; type: ADME, organism-based, Bone element; details: in vivo
[30] = organism: Rattus norvegicus; experiment: Biodistribution in normal rat blood in the presence of 0.01 M Gd/0.05 M lig; type: ADME, organism-based; details: in vivo
[31] = organism: Rattus norvegicus; experiment: Biodistribution in normal rat spleen in the presence of NAC Gd 0.01 M lig at 2 hr; type: ADME, organism-based; details: in vivo
[32] = Ratio of uptake of [GD] in bone 1 hr post injection with NCA GD dose to that of blood; type: functional
[33] = organism: Rattus norvegicus; experiment: Biodistribution in normal rat bone in the presence of 0.005 M Gd/0.01 M lig at 2 hr; type: ADME, organism-based, Bone element; details: in vivo
[34] = organism: Rattus norvegicus; experiment: Biodistribution in normal rat liver in the presence of 0.005 M Gd/0.01 M lig at 2 hr; type: ADME, organism-based; details: in vivo
[35] = organism: Rattus norvegicus; experiment: Biodistribution in normal rat liver in the presence of NAC Gd 0.01 M lig at 2 hr; type: ADME, organism-based; details: in vivo
[36] = organism: Rattus norvegicus; experiment: Uptake of [GD] in bone 1 hr post injection with NCA GD dose; type: functional, Bone element
[37] = test system: Rattus norvegicus; experiment: Biodistribution in rat l. intestine in the presence of 50 Gd/kg at 2 hr; type: ADME, organism-based; details: in vivo
[38] = organism: Rattus norvegicus; experiment: Biodistribution in rat heart in the presence of NCA Gd/0.01 M lip; type: ADME, organism-based; details: in vivo
[39] = test system: Rattus norvegicus; experiment: Biodistribution in rat blood in the presence of 50 Gd/kg at 6 hr; type: ADME, organism-based; details: in vivo
[40] = organism: Rattus norvegicus; experiment: Biodistribution in rat s. intestine in the presence of NCA (No carrier added); type: ADME, organism-based; details: in vivo
[41] = organism: Rattus norvegicus; experiment: Biodistribution in rat muscle in the presence of NCA Gd/0.01 M lip; type: ADME, organism-based, Muscle tissue; details: in vivo
[42] = test system: Rattus norvegicus; experiment: Biodistribution in rat spleen in the presence of 50 Gd/kg at 2 hr; type: ADME, organism-based; details: in vivo
[43] = organism: Rattus norvegicus; experiment: Biodistribution in rat muscle in the presence of 0.05 M Gd/0.15 M lig; type: ADME, organism-based, Muscle tissue; details: in vivo
[44] = test system: Rattus norvegicus; experiment: Biodistribution in rat spleen in the presence of 50 Gd/kg at 15 min; type: ADME, organism-based; details: in vivo, 0.25 h
[45] = test system: Rattus norvegicus; experiment: Biodistribution in rat liver in the presence of 50 Gd/kg at 2 hr; type: ADME, organism-based; details: in vivo
[46] = organism: Rattus norvegicus; experiment: Biodistribution in rat bone in the presence of 0.05 M Gd/0.15 M lig; type: ADME, organism-based, Bone element; details: in vivo
[47] = organism: Rattus norvegicus; experiment: Biodistribution in rat liver by in the presence of 0.05 M Gd/0.15 M lig; type: ADME, organism-based; details: in vivo
[48] = test system: Rattus norvegicus; experiment: Biodistribution in rat liver in the presence of 50 Gd/kg at 6 hr; type: ADME, organism-based; details: in vivo
[49] = test system: Rattus norvegicus; experiment: Biodistribution in rat blood in the presence of 50 Gd/kg at 15 min; type: ADME, organism-based; details: in vivo, 0.25 h
[50] = test system: Rattus norvegicus; experiment: Biodistribution in rat s. intestine in the presence of 50 Gd/kg at 2 hr; type: ADME, organism-based; details: in vivo
[51] = organism: Rattus norvegicus; experiment: Biodistribution in rat kidney in the presence of NCA Gd/0.01 M lip; type: ADME, organism-based; details: in vivo
[52] = organism: Rattus norvegicus; experiment: Biodistribution in rat bone in the presence of NCA Gd/0.01 M lip; type: ADME, organism-based, Bone element; details: in vivo
[53] = test system: Rattus norvegicus; experiment: Biodistribution in rat s. intestine in the presence of 50 Gd/kg at 6 hr; type: ADME, organism-based; details: in vivo
[54] = organism: Rattus norvegicus; experiment: Biodistribution in rat blood in the presence of NCA Gd/0.01 M lip; type: ADME, organism-based; details: in vivo
[55] = test system: Rattus norvegicus; experiment: Biodistribution in rat liver by in the presence 50 Gd/kg at 15 min; type: ADME, organism-based; details: in vivo, 0.25 h
[56] = organism: Rattus norvegicus; experiment: Biodistribution in rat kidney in the presence of 0.05 M Gd/0.15 M lig; type: ADME, organism-based; details: in vivo
[57] = test system: Rattus norvegicus; experiment: Biodistribution in rat l. intestine in the presence of 50 Gd/kg at 6 hr; type: ADME, organism-based; details: in vivo
[58] = test system: Rattus norvegicus; experiment: Biodistribution in rat blood in the presence of 50 Gd/kg at 2 hr; type: ADME, organism-based; details: in vivo
[59] = organism: Rattus norvegicus; experiment: Biodistribution in rat spleen in the presence of NCA Gd/0.01 M lip; type: ADME, organism-based; details: in vivo
[60] = organism: Rattus norvegicus; experiment: Biodistribution in rat heart in the presence of 0.05 M Gd/0.15 M lig; type: ADME, organism-based; details: in vivo
[61] = test system: Rattus norvegicus; experiment: Biodistribution in rat spleen in the presence of 50 Gd/kg at 6 hr; type: ADME, organism-based; details: in vivo
[62] = test system: Rattus norvegicus; experiment: Biodistribution in rat stomach in the presence of 50 Gd/kg at 15 min; type: ADME, organism-based; details: in vivo, 0.25 h
[63] = organism: Rattus norvegicus; experiment: Biodistribution in rat liver in the presence of NCA Gd/0.01 M lip; type: ADME, organism-based; details: in vivo
[64] = organism: Rattus norvegicus; experiment: Biodistribution in rat l. intestine in the presence of 0.01 M carrier at 1 hr; type: ADME, organism-based; details: in vivo
[65] = test system: Rattus norvegicus; experiment: Biodistribution in rat stomach in the presence of 50 Gd/kg at 2 hr; type: ADME, organism-based; details: in vivo
[66] = organism: Rattus norvegicus; experiment: Biodistribution in rat blood in the presence of 0.05 M Gd/0.15 M lig; type: ADME, organism-based; details: in vivo

ID/organ [3]: 0.045%
ID/organ [6]: 0.3%
ID/organ [7]: 0.02%
ID/organ [8]: 0.04%
ID/organ [10]: 0.29%
ID/organ [11]: 0.5%
ID/organ [13]: 2.4%
ID/organ [14]: 0.004%
ID/organ [16]: 0.4%
ID/organ [17]: 0.09%
ID/organ [19]: 0.13%
ID/organ [20]: 2%
ID/organ [21]: 0.02%
ID/organ [22]: 47%
ID/organ [24]: 0.009%
ID/organ [26]: 1.7%
ID/organ [27]: 0.1%
ID/organ [28]: 0.38%
ID/organ [29]: 35%
ID/organ [30]: 0.7%
ID/organ [31]: 0.004%
ID/organ [33]: 42.9%
ID/organ [34]: 1.6%
ID/organ [35]: 0.22%
Structure (SMILES): O=P(O)(O)C(N(CCN(C(P(=O)(O)O)P(=O)(O)O)C(P(=O)(O)O)P(=O)(O)O)C(P(=O)(O)O)P(=O)(O)O)P(=O)(O)O
Ratio [1]: 73.3
Ratio [2]: 43.5
ID [4]: 53.1%
ID [5]: 50.1%
ID [9]: 35.4%
Ratio [12]: 37.3
Ratio [15]: 51.2
Ratio [18]: 20.4
Ratio [23]: 27.7
Ratio [25]: 12.4
Ratio [32]: 91.8
ID [36]: 54.8%

ID/organ [37]: 0.334%
ID/organ [38]: 0.099%
ID/organ [39]: 0.217%
ID/organ [40]: 0.86%
ID/organ [41]: 2.38%
ID/organ [42]: 12.5%
ID/organ [43]: 0.124%
ID/organ [44]: 11.2%
ID/organ [45]: 74.3%
ID/organ [46]: 1.18%
ID/organ [47]: 73%
ID/organ [48]: 80.2%
ID/organ [49]: 23.4%
ID/organ [50]: 1.03%
ID/organ [51]: 0.339%
ID/organ [52]: 6.91%
ID/organ [53]: 0.675%
ID/organ [54]: 2.62%
ID/organ [55]: 34.2%
ID/organ [56]: 0.447%
ID/organ [57]: 0.293%
ID/organ [58]: 0.26%
ID/organ [59]: 2.67%
ID/organ [60]: 0.059%
ID/organ [61]: 8.12%
ID/organ [62]: 0.221%
ID/organ [63]: 67.3%
ID/organ [64]: 0.138%
ID/organ [65]: 0.178%
ID/organ [66]: 0.319%
Structure (SMILES): CC(C(=O)O)C(C(=O)O)(P(=O)(O)O)P(=O)(O)O (stereo unspecified)
